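Dose response: 5 concentrations. Exposure: 48 h. Format: 96-well plates. Endpoint: linear interpolation; highest concentration if not reached. GI50 = concentration required for 50% inhibition of growth.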 Activity calls are given as the source filed them. No stated cut-off is given here; in the data, active = GI50 up to about 1.1 µM and inactive = higher.

Test systems include DU-145; HCC 2998; HCT-116; HL-60; LOX IMVI; MDA-MB-231; MDA-N; NCI-H460; NCI-H522; OVCAR-3; OVCAR-4; OVCAR-5; PC-3; SF-268; SF-539; SK-MEL-28; SNB-19; T47D; TK-10; UO-31.
Experiment in all cases: NCI tumour cell line growth inhibition, 48 h

On to `Cc1nn(C(=O)c2ccc(Cl)cc2)c2c1C(c1ccco1)SC(=N)N2` (stereo not given), for which the GI50 with DU-145, with HCC 2998, in the assay on HCT-116, in the assay on HL-60, in the assay with LOX IMVI and with MDA-MB-231 was > 10 µM (inactive) throughout. Further, the GI50 in the assay on MDA-N, in the assay with NCI-H460, in the assay on NCI-H522, in the assay with OVCAR-3, in the assay on OVCAR-4 and in the assay with OVCAR-5 was > 10 µM (inactive) throughout. For the same compound, the GI50 in the assay on PC-3, with SF-268, in the assay on SF-539, in the assay with SK-MEL-28, in the assay with SNB-19 and in the assay with T47D was > 10 µM (inactive) in each case. In addition, in the assay on TK-10, the GI50 was > 10 µM (inactive).

For `Cc1c(F)c(N)c2c(=O)cc(-c3ccc(NC(=O)C(N)CCCNC(=N)N)c(F)c3)oc2c1F` (stereo not given), the GI50 in the assay on DU-145 is 29.6 µM (inactive); in the assay with HCC 2998, 0.134 µM (active); in the assay with HCT-116 it was 13.2 µM (inactive); with HL-60, > 52 µM (inactive); in the assay on LOX IMVI it was 38.1 µM (inactive); in the assay on MDA-MB-231, 22.5 µM (inactive). The GI50 in the assay on MDA-N was 32.1 µM (inactive); in the assay on NCI-H460, 0.146 µM (active); in the assay with NCI-H522 it was 24.8 µM (inactive); with OVCAR-4, 0.141 µM (active); in the assay with OVCAR-5, 0.299 µM (active); in the assay on PC-3, 30.5 µM (inactive). Besides, the GI50 with SF-268 was 32.7 µM (inactive); with SF-539 it was 16.7 µM (inactive); in the assay on SK-MEL-28 it was 24.7 µM (inactive); in the assay on SNB-19, 24.8 µM (inactive); with T47D, 0.411 µM (active); in the assay with TK-10, 0.146 µM (active). Besides, the GI50 with UO-31 is 22.8 µM (inactive).

As for `COC1/C=C\OC2(C)Oc3c(C)c(O)c4c(O)c(c(/C=N\OCCCc5ccccc5)c(O)c4c3C2=O)NC(=O)/C(C)=C\C=C/C(C)C(O)C(C)C(O)C(C)C(OC(C)=O)C1C` (stereo not given), the GI50 was 4.71 µM (inactive) in the assay with DU-145; 11.4 µM (inactive) in the assay with HCC 2998; 2.3 µM (inactive) in the assay on HCT-116; 3.01 µM (inactive) with HL-60; 3.33 µM (inactive) in the assay on LOX IMVI; 2.25 µM (inactive) in the assay with MDA-MB-231. The GI50 is 3.44 µM (inactive) in the assay with MDA-N; 3.49 µM (inactive) in the assay with NCI-H460; 3.54 µM (inactive) with NCI-H522; 3.07 µM (inactive) in the assay on OVCAR-3; 3.08 µM (inactive) in the assay on OVCAR-4; 6.85 µM (inactive) in the assay with OVCAR-5. Moreover, the GI50 in the assay on PC-3 was 3.18 µM (inactive); in the assay on SF-268 it was 4.93 µM (inactive); in the assay on SF-539 it was 2.93 µM (inactive); in the assay with SK-MEL-28, 2.06 µM (inactive); in the assay with SNB-19, 6.32 µM (inactive); with T47D it was 4.45 µM (inactive). Also, in the assay with TK-10, the GI50 was 3.23 µM (inactive).

For the compound `Cc1nc2ccc([N+](=O)[O-])cc2c(=O)n1C(=S)Nc1cccc(Cl)c1`, the GI50 in the assay on DU-145 was 28.4 µM (inactive); in the assay on HCC 2998, 9.02 µM (inactive); in the assay with HCT-116, 16 µM (inactive); with HL-60 it was 14.2 µM (inactive); in the assay on LOX IMVI it was 12.9 µM (inactive); in the assay with MDA-MB-231, 15.5 µM (inactive). The GI50 with MDA-N was 16.4 µM (inactive); in the assay with NCI-H460 it was 14.9 µM (inactive); in the assay with OVCAR-3 it was 12.3 µM (inactive); in the assay with OVCAR-4, 19.5 µM (inactive); in the assay on OVCAR-5, 28.2 µM (inactive); with PC-3, 15.2 µM (inactive). Also, the GI50 in the assay on SF-268 was 16.8 µM (inactive); with SF-539 it was 19.5 µM (inactive); in the assay with SK-MEL-28 it was 17.6 µM (inactive); with SNB-19, 27.8 µM (inactive); in the assay on T47D it was 7.53 µM (inactive); with TK-10, 23.8 µM (inactive). Besides, the GI50 with UO-31 was 5.24 µM (inactive).

For `N#Cc1c(=O)c2ccccc2n2ccccc12`, the GI50 with DU-145, in the assay with HCC 2998, in the assay with HCT-116, in the assay with HL-60, in the assay with LOX IMVI and with MDA-MB-231 was > 100 µM (inactive) throughout. In addition, the GI50 in the assay with MDA-N was > 100 µM (inactive); in the assay on NCI-H460, > 100 µM (inactive); in the assay with NCI-H522 it was > 100 µM (inactive); with OVCAR-4, > 100 µM (inactive); with PC-3, 19.7 µM (inactive); in the assay with SF-268 it was > 100 µM (inactive). Moreover, the GI50 with SK-MEL-28 is > 100 µM (inactive); in the assay with SNB-19, 83.6 µM (inactive); in the assay with T47D, > 100 µM (inactive); in the assay on TK-10, > 100 µM (inactive); with UO-31, 97.9 µM (inactive).

Regarding `CCOC(=O)NC(N(C)C(C(C)C)P(=O)(OCC)OCC)(C(F)(F)F)C(F)(F)F` (stereo not given), the GI50 in the assay on DU-145, with HCT-116, with HL-60, in the assay on LOX IMVI, in the assay on MDA-MB-231 and in the assay with MDA-N was > 100 µM (inactive) each time. Further, the GI50 with NCI-H460, in the assay with NCI-H522, with OVCAR-3, in the assay on OVCAR-4, in the assay with OVCAR-5 and with PC-3 was > 100 µM (inactive) each time. Besides, the GI50 in the assay on SF-268, in the assay with SF-539, with SK-MEL-28, with SNB-19, in the assay with T47D and in the assay on TK-10 was > 100 µM (inactive) throughout. Besides, the GI50 in the assay on UO-31 is > 100 µM (inactive).

`O=C(CCl)Nc1cc(Cl)c(Cl)cc1Cl`: the GI50 in the assay on DU-145 is 3.16 µM (inactive); in the assay with HCC 2998 it was 4.84 µM (inactive); in the assay on HCT-116, 1.59 µM (inactive); in the assay with HL-60, 2.82 µM (inactive); with LOX IMVI, 1.56 µM (inactive); in the assay with MDA-MB-231 it was 1.56 µM (inactive). Also, the GI50 with MDA-N is 1.69 µM (inactive); in the assay with NCI-H460, 1.73 µM (inactive); in the assay on NCI-H522, 0.505 µM (active); with OVCAR-3, 1.76 µM (inactive); in the assay with OVCAR-4 it was 2.27 µM (inactive); with OVCAR-5, 2.12 µM (inactive). In addition, the GI50 is 1.76 µM (inactive) in the assay on PC-3; 2.3 µM (inactive) in the assay with SF-268; 1.67 µM (inactive) with SF-539; 2.32 µM (inactive) in the assay on SK-MEL-28; 2.27 µM (inactive) in the assay on SNB-19; 2.29 µM (inactive) in the assay with T47D. Besides, the GI50 in the assay with TK-10 is 1.83 µM (inactive).

As to `[N-]=[N+]=NC1CC(n2ccc(N)nc2=O)OC1COP(=O)(O)OP(=O)(O)OP(=O)(O)O` (stereo not given), the GI50 in the assay with DU-145, with HCC 2998, in the assay with HCT-116, with HL-60, with LOX IMVI and in the assay on MDA-MB-231 was > 100 µM (inactive) throughout. Moreover, the GI50 with MDA-N, in the assay on NCI-H460, in the assay on NCI-H522, in the assay on OVCAR-3, in the assay on OVCAR-4 and with OVCAR-5 was > 100 µM (inactive) each time. The GI50 with PC-3, with SF-268, in the assay with SF-539, in the assay on SK-MEL-28, with SNB-19 and in the assay with T47D was > 100 µM (inactive) each time. Further, the GI50 in the assay with UO-31 was > 100 µM (inactive).

(Values after ChEMBL document CHEMBL1201862, “PubChem BioAssay data set” (2004).)
